According to patent US20130072430A1, “METHODS FOR TREATMENT OR PROPHYLAXIS OF KIDNEY OR LIVER DYSFUNCTION” (NPS PHARMACEUTICALS, INC., priority 2010, published 2013):

Test system: Human patients with short bowel syndrome
Assay: Example 1: liver diagnostic biomarkers (total bilirubin, ALT, AST, ALP) in short bowel syndrome patients, every four weeks for 24 weeks
Format: in vivo
Design: AST (SGOT) Change from Baseline, Median / ALT (SGPT), Median / TOTAL BILIRUBIN, Median / TOTAL BILIRUBIN Change from Baseline, Median / ALT (SGPT) Change from Baseline, Median / AST (SGOT), Median: unit not given here
Details: 0.05 mg/kg/day
Experimental: Human patients with short bowel syndrome were divided into three groups: a control group (16 total individuals) to receive placebo, an experimental group (35 total individuals) to receive teduglutide at 0.05 mg/kg/day throughout the study, and an experimental group (32 total individuals) to receive teduglutide at 0.1 mg/kg/day throughout the study. Patients were treated by subcutaneous injection of placebo or the appropriate dose of teduglutide. As individuals with short bowel syndrome are likely to experience associated liver and kidney disease, known biomarkers of liver and kidney function were monitored every four weeks, for 24 weeks. The liver biomarkers tested included total bilirubin, ALT and AST and ALP. The kidney biomarkers tested included urea nitrogen, creatinine and GFR. Before administration of placebo or teduglutide, diagnostic biomarker levels were tested to establish a baseline for each individual.
To visualize the effect of GLP-2 on the levels of the diagnostic biomarkers, the average change from baseline was calculated for the placebo and teduglutide treated groups for each visit after a baseline was established. The average change from baseline of each group is depicted in FIGS. […]. The numerical figures for each diaanostic biomarker at each time point are depicted in Table 1.
The efficacy of teduglutide in treating liver dysfunction was further tested by sorting the data into two groups: individuals with abnormal baseline values of liver diagnostic biomarkers; and individuals with normal baseline values of liver diagnostic biomarkers. The mean diagnostic biomarker change from baseline for these two groups is shown for ALT (FIGS. 5 and 6) and AST (FIGS. 7 and 8). […] These changes were significant when compared to baseline levels for the group, and when compared to placebo (see FIGS. 5 and 7).
The raw data for this sorting is reproduced in Table 2 below.

`CC[C@H](C)[C@H](NC(=O)[C@H](Cc1ccccc1)NC(=O)[C@H](CC(=O)O)NC(=O)[C@H](CCCNC(=N)N)NC(=O)[C@H](C)NC(=O)[C@H](C)NC(=O)[C@H](CC(C)C)NC(=O)[C@H](CC(N)=O)NC(=O)[C@H](CC(=O)O)NC(=O)[C@H](CC(C)C)NC(=O)[C@@H](NC(=O)[C@@H](NC(=O)[C@H](CC(N)=O)NC(=O)[C@H](CCSC)NC(=O)[C@H](CCC(=O)O)NC(=O)[C@H](CC(=O)O)NC(=O)[C@H](CO)NC(=O)[C@H](Cc1ccccc1)NC(=O)[C@H](CO)NC(=O)CNC(=O)[C@H](CC(=O)O)NC(=O)CNC(=O)[C@@H](N)Cc1c[nH]cn1)[C@@H](C)O)[C@@H](C)CC)C(=O)N[C@@H](CC(N)=O)C(=O)N[C@@H](Cc1c[nH]c2ccccc12)C(=O)N[C@@H](CC(C)C)C(=O)N[C@H](C(=O)N[C@@H](CCC(N)=O)C(=O)N[C@H](C(=O)N[C@@H](CCCCN)C(=O)N[C@H](C(=O)N[C@H](C(=O)N[C@@H](CC(=O)O)C(=O)O)[C@@H](C)O)[C@@H](C)CC)[C@@H](C)O)[C@@H](C)CC` [teduglutide] was tested, and the “ALKALINE PHOSPHATASE Change from Baseline, Mean (SD)” value (from here on “ALKALINE PHOSPHATASE Change … (SD)”) (DW4) was −24.8 (45.66), the “ALKALINE PHOSPHATASE Change from Baseline, Median” value (DW4) was −16.0 and the “ALKALINE PHOSPHATASE, Mean (SD)” value (DW4) was 159.5 (90.91). For the same molecule, the “ALKALINE PHOSPHATASE, Median” value (DW4) was 139.0, the “ALT (SGPT) Change from Baseline, Mean (SD)” value (from here on “ALT (SGPT) Change … (SD)”) (DW4) was −14.9 (26.39) and the “ALT (SGPT) Change from Baseline, Median” value (DW4) was −5.0. For the same molecule, the “ALT (SGPT), Mean (SD)” value (DW4) was 30.1 (14.08), the “ALT (SGPT), Median” value (DW4) was 27.0 and the “AST (SGOT) Change from Baseline, Mean (SD)” value (“AST (SGOT) Change … (SD)” below) (DW4) was −5.5 (24.09). For the same molecule, the “AST (SGOT) Change from Baseline, Median” value (DW4) was −4.0, the “AST (SGOT), Mean (SD)” value (DW4) was 29.1 (19.23) and the “AST (SGOT), Median” value (DW4) was 27.0. For the same molecule, the “TOTAL BILIRUBIN Change from Baseline, Mean (SD)” value (from here on “TOTAL BILIRUBIN Change … (SD)”) (DW4) was −0.8 (4.31), the “TOTAL BILIRUBIN Change from Baseline, Median” value (DW4) was 0.0 and the “TOTAL BILIRUBIN, Mean (SD)” value (DW4) was 10.4 (9.48). For the same molecule, the “TOTAL BILIRUBIN, Median” value (DW4) was 7.0, the “ALKALINE PHOSPHATASE Change … (SD)” value (DW8) was −24.0 (64.47) and the “ALKALINE PHOSPHATASE Change from Baseline, Median” value (DW8) was −20.0. For the same molecule, the “ALKALINE PHOSPHATASE, Mean (SD)” value (DW8) was 152.2 (84.05), the “ALKALINE PHOSPHATASE, Median” value (DW8) was 134.0 and the “ALT (SGPT) Change … (SD)” value (DW8) was −9.8 (30.38). The “ALT (SGPT) Change from Baseline, Median” value (DW8) was −4.0, the “ALT (SGPT), Mean (SD)” value (DW8) was 37.3 (23.71) and the “ALT (SGPT), Median” value (DW8) was 31.5. For the same molecule, the “AST (SGOT) Change … (SD)” value (DW8) was −3.2 (19.88), the “AST (SGOT) Change from Baseline, Median” value (DW8) was −3.0 and the “AST (SGOT), Mean (SD)” value (DW8) was 33.5 (18.56). The “AST (SGOT), Median” value (DW8) was 28.0, the “TOTAL BILIRUBIN Change … (SD)” value (DW8) was −0.4 (4.78) and the “TOTAL BILIRUBIN Change from Baseline, Median” value (DW8) was −1.0. For the same molecule, the “TOTAL BILIRUBIN, Mean (SD)” value (DW8) was 10.8 (8.86), the “TOTAL BILIRUBIN, Median” value (DW8) was 8.0 and the “ALKALINE PHOSPHATASE Change … (SD)” value (DW12) was −39.4 (48.95). For the same molecule, the “ALKALINE PHOSPHATASE Change from Baseline, Median” value (DW12) was −24.0, the “ALKALINE PHOSPHATASE, Mean (SD)” value (DW12) was 143.5 (73.92) and the “ALKALINE PHOSPHATASE, Median” value (DW12) was 130.5. The “ALT (SGPT) Change … (SD)” value (DW12) was −12.7 (29.55), the “ALT (SGPT) Change from Baseline, Median” value (DW12) was −10.0 and the “ALT (SGPT), Mean (SD)” value (DW12) was 34.6 (24.30). The “ALT (SGPT), Median” value (DW12) was 26.0, the “AST (SGOT) Change … (SD)” value (DW12) was −5.9 (19.28) and the “AST (SGOT) Change from Baseline, Median” value (DW12) was −8.0. For the same molecule, the “AST (SGOT), Mean (SD)” value (DW12) was 29.2 (15.48), the “AST (SGOT), Median” value (DW12) was 26.5 and the “TOTAL BILIRUBIN Change … (SD)” value (DW12) was −1.8 (5.75). For the same molecule, the “TOTAL BILIRUBIN Change from Baseline, Median” value (DW12) was −1.0, the “TOTAL BILIRUBIN, Mean (SD)” value (DW12) was 9.4 (6.65) and the “TOTAL BILIRUBIN, Median” value (DW12) was 7.0. The “ALKALINE PHOSPHATASE Change … (SD)” value (DW16) was −12.3 (69.90), the “ALKALINE PHOSPHATASE Change from Baseline, Median” value (DW16) was −20.5 and the “ALKALINE PHOSPHATASE, Mean (SD)” value (DW16) was 168.2 (128.08). For the same molecule, the “ALKALINE PHOSPHATASE, Median” value (DW16) was 134.0, the “ALT (SGPT) Change … (SD)” value (DW16) was −3.2 (24.76) and the “ALT (SGPT) Change from Baseline, Median” value (DW16) was −2.5. The “ALT (SGPT), Mean (SD)” value (DW16) was 39.5 (39.44), the “ALT (SGPT), Median” value (DW16) was 28.0 and the “AST (SGOT) Change … (SD)” value (DW16) was −4.3 (11.75). The “AST (SGOT) Change from Baseline, Median” value (DW16) was −1.5, the “AST (SGOT), Mean (SD)” value (DW16) was 29.3 (12.05) and the “AST (SGOT), Median” value (DW16) was 25.0. For the same molecule, the “TOTAL BILIRUBIN Change … (SD)” value (DW16) was −1.3 (9.00), the “TOTAL BILIRUBIN Change from Baseline, Median” value (DW16) was −1.0 and the “TOTAL BILIRUBIN, Mean (SD)” value (DW16) was 10.0 (8.90). The “TOTAL BILIRUBIN, Median” value (DW16) was 7.0, the “ALKALINE PHOSPHATASE Change … (SD)” value (DW20) was −36.9 (49.89) and the “ALKALINE PHOSPHATASE Change from Baseline, Median” value (DW20) was −25.0. The “ALKALINE PHOSPHATASE, Mean (SD)” value (DW20) was 144.2 (76.09), the “ALKALINE PHOSPHATASE, Median” value (DW20) was 136.5 and the “ALT (SGPT) Change … (SD)” value (DW20) was −16.0 (28.73). For the same molecule, the “ALT (SGPT) Change from Baseline, Median” value (DW20) was −5.0, the “ALT (SGPT), Mean (SD)” value (DW20) was 29.7 (13.35) and the “ALT (SGPT), Median” value (DW20) was 26.0. For the same molecule, the “AST (SGOT) Change … (SD)” value (DW20) was −8.0 (14.96), the “AST (SGOT) Change from Baseline, Median” value (DW20) was −4.0 and the “AST (SGOT), Mean (SD)” value (DW20) was 26.1 (7.02). The “AST (SGOT), Median” value (DW20) was 25.0, the “TOTAL BILIRUBIN Change … (SD)” value (DW20) was −0.8 (5.69) and the “TOTAL BILIRUBIN Change from Baseline, Median” value (DW20) was 0.0. The “TOTAL BILIRUBIN, Mean (SD)” value (DW20) was 9.7 (6.78), the “TOTAL BILIRUBIN, Median” value (DW20) was 9.0 and the “ALKALINE PHOSPHATASE Change … (SD)” value (DW24) was −11.6 (166.86). The “ALKALINE PHOSPHATASE Change from Baseline, Median” value (DW24) was −29.0, the “ALKALINE PHOSPHATASE, Mean (SD)” value (DW24) was 169.6 (204.22) and the “ALKALINE PHOSPHATASE, Median” value (DW24) was 131.0. For the same molecule, the “ALT (SGPT) Change … (SD)” value (DW24) was −13.5 (24.40).
